According to PMC12561670, “Isolation of Dual-Active Drugs with Anticancer and Antibacterial Activities That Target Both Tubulin and FtsZ” (Antibiotics, 2025):
Converted amounts (≈) assume the structure as drawn. Where a name gives a salt, the structure may show the parent alone. Read-outs that look alike come from different tables or passages of the source.

What was measured:
bovine brain tubulin = experiment: Inhibition of tubulin polymerization; type: biochemical; conditions: 10 μM bovine brain tubulin, 20 min; read-out: IC50 ± SD Tubulin (inhibition of tubulin polymerization)
Method: Compounds with a certain concentration were pre-incubated with 10 μM bovine brain tubulin in glutamate buffer at 30 °C, and then cooled to 0 °C. The absorbance of 350 nm was immediately measured at 30 °C, as soon as the addition of 0.4 mM GTP. The absorbance would be detected continuously for 20 min. The IC50 was defined as the compound concentration that inhibited tubulin polymerization by 50% during 20 min.

E. coli (ATCC 8739) = experiment: MIC, broth microdilution; type: cell-based; conditions: Escherichia coli, read-out: MIC E. coli (ATCC 8739)
FtsZ = target: T1, FtsZ (Staphylococcus aureus, UniProt P0A031); experiment: Sedimentation assay of FtsZ polymerization; type: biochemical; conditions: 50 μM compound, 5 μM FtsZ, 37 °C 30 min
T1 construct: His tag; made in house; host or cells: E. coli BL21(DE3)
T1 sequence (P0A031 1-390): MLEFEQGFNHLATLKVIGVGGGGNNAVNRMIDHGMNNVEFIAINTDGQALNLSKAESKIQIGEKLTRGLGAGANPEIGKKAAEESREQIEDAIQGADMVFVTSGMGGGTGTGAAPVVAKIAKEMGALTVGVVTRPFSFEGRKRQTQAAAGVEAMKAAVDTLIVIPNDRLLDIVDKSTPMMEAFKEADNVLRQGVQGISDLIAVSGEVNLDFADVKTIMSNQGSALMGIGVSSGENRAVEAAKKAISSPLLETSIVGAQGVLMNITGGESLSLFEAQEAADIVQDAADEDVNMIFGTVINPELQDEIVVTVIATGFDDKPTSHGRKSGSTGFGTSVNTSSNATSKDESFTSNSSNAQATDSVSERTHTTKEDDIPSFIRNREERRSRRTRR
Method: Sedimentation assay was also conducted for the influence of compounds on FtsZ polymerization. FtsZ (5 μM) was polymerized in a buffer containing 25 mM Pipes buffer (pH 6.8) and 3 mM MgSO4 in the […] of DMSO or compounds (50 μM). After the addition of 4 mM GTP, the sample was instantly placed at 37 °C for 30 min. Then, the polymers were collected by centrifuging for 30 min at 25 °C. The protein concentration in the supernatant was determined using the Bradford quantification method, with bovine serum albumin (BSA) as the standard. The experiment was performed in triplicate, and the average absorbance is shown.

S. aureus (ATCC 6538) = experiment: MIC, broth microdilution; type: cell-based; conditions: Staphylococcus aureus, read-out: MIC S. aureus (ATCC 6538)
P. aeruginosa (DSM 939) = experiment: MIC, broth microdilution; type: cell-based; conditions: Pseudomonas aeruginosa, read-out: MIC P. aeruginosa (DSM 939)
B. subtilis (CICC 21164) = experiment: MIC, broth microdilution; type: cell-based; conditions: Bacillus subtilis, 18 h, read-out: MIC B. subtilis (CICC 21164)
Method: MIC assays were carried out by employing the broth microdilution method in accordance with Clinical and Laboratory Standards Institute (CLSI) guidelines. E. coli BNCC337004, S. aureus BNCC336423, P. aeruginosa BNCC337099, and B. subtilis CICC 21164 were applied for the MIC detection. Mueller–Hinton broth (MHB) was used in bacterial culture, and log-phase bacteria were diluted into a 0.5 McFarland Standard suspension, which was then diluted 1000 times again. Subsequently, 100 μL of the obtained bacterial suspension was placed into each well of 96-well microtiter plates, along with 2-fold serial dilutions of compounds (512, 256, 128, 64, 32, 16, 8, 4, 2, 1, 0.5, 0 μM). The microtiter plates were incubated aerobically for 18 h at 37 °C. The MIC was defined as the lowest drug concentration at which no visible turbidity was observed. All experiments are conducted in three parallel.

S. aureus FtsZ = target: T2, S. aureus FtsZ (Staphylococcus aureus, UniProt P0A031); experiment: FtsZ polymerization assay (A340); type: biochemical; conditions: 50 μM compound, 5 µM FtsZ, 4 mM GTP, vs DMSO
T2 construct: His tag; made in house; host or cells: E. coli BL21(DE3)
T2 sequence (P0A031 1-390): T1 sequence (P0A031 1-390)
Method: The effect of compounds on S. aureus FtsZ polymerization was monitored by employing a microtiter plate-based spectrophotometric assay method, and the reactions were conducted in flat-bottomed 96-well microtiter plates. The degree of FtsZ polymerization was reflected by the corresponding changes in absorbance at 340 nm (A340). […] The polymerization reaction began immediately once 4 mM GTP was added, and then the polymerization was continuously monitored at 25 °C for 60 min by measuring A340 in BioTek-Synergy4 multifunctional enzyme-linked immunosorbent assay (ELISA) reader.

Cytotoxicity, CCK8 = type: cell-based; conditions: human
Method: The absorbance of 450 nm was measured in an ELISA reader (BioTek-Synergy 4, USA). Then, cell viability was calculated, and the corresponding images were drawn with GraphPad Prism 9.

S. aureus BNCC336423 = experiment: Time–killing curve; type: cell-based; conditions: S. aureus BNCC336423, concentrations of 4× the MIC or greater
Method: S. aureus BNCC336423 was employed for the time–killing curve study. […] Meanwhile, DMSO with an equivalent volume was added to the vehicle control tube. The cultures were then subjected to shaking incubation at 37 °C. Subsequently, cultures were taken out at predetermined time intervals (0, 1, 2, 4, 6, 8, and 24 h), centrifuged at 16,000×g for 3 min, and diluted to an appropriate multiple. These diluted samples were then plated onto Tryptic Soy Agar (TSA) plates for enumeration. Following a 24 h incubation period at 37 °C, colonies on the TSA plates were counted for the CFU/mL, thereby providing insights into the time-dependent bactericidal activity of the tested compounds.

E. coli = experiment: In vivo antibacterial activity, mouse peritoneal infection; parameters: species or system CD-1 male mice
Source text: SPF grade CD-1 male mice weighing 30 ± 3 g were purchased from Shanghai Slake Experimental Animal Co., Ltd. (Shanghai, China). […] Immediately following this, the mice were intraperitoneally injected with the test compounds. Each experimental group consisted of five mice, with each compound being tested at two distinct concentration gradients (determined based on the minimum inhibitory concentration, MIC). A separate group received physiological saline as a negative control. The subsequent assessment focused on evaluating the therapeutic potential of these drugs against bacterial infections. On the first and third days post-administration, 2 mL of sterile physiological saline was injected into the peritoneal cavity of each mouse. After a gentle two-minute dilution under sterile conditions, the abdominal fluid was extracted for bacterial enumeration using the plate counting method. Furthermore, the clinical manifestations of each mouse group, encompassing mental status, appetite, and other relevant parameters, were meticulously observed over a seven-day period. On the seventh day, the mice were euthanized, and a thorough macroscopic examination was conducted to assess the pathological changes in various vital organs.

B. subtilis = experiment: Phase-contrast microscopy, cell division inhibition; type: cell-based; conditions: 64 μM, 4 h
Method: Cell Division Inhibitory Screening Assay Cell division inhibitory activity of compounds was conducted as below. […] Afterwards, 1 mL of the sample was centrifuged at 15,000× g for 3 min at room temperature, and the bacterial pellets were washed with 1 mL of PBS before re-centrifugation. The final bacterial pellets obtained were resuspended in 5 mL PBS. 20 μL of bacterial suspension was transferred to slides for microscopy. Cell morphology was estimated by using the phase-contrast method of Olympus IX71 microscopy (Olympus Corporation, Tokyo, Japan) with 400× magnification.

[1] = ATCC8739, broth microdilution, 18 h, 37 °C
[2] = ATCC6538, broth microdilution, 18 h, 37 °C
[3] = DSM939, broth microdilution, 18 h, 37 °C
[4] = 293T cells (renal epithelial cells), read-out: cell viability HT293 (293T)
[5] = LO2 cells (normal hepatic cells), read-out: cell viability LO2

Structure (SMILES)	IC50 (bovine brain tubulin)	MIC (E. coli (ATCC 8739); [1])	effect on FtsZ sedimentation (polymerization amount) (FtsZ)	MIC (S. aureus (ATCC 6538); [2])	MIC (P. aeruginosa (DSM 939); [3])	MIC (B. subtilis (CICC 21164); broth microdilution, 37 °C)	effect on FtsZ polymerization (A340) (S. aureus FtsZ)	viability at 12 h, 100 µM (Cytotoxicity, CCK8; [4])	viability at 12 h, 100 µM (Cytotoxicity, CCK8; [5])	logs of kill in time–kill (S. aureus BNCC336423)	MIC (E. coli (ATCC 8739); ATCC8739, 18 h)	viability at 12 h, 100 µM (Cytotoxicity, CCK8; read-out: cell viability HT293 (293T))	viability at 12 h, 100 µM (Cytotoxicity, CCK8; read-out: cell viability LO2)	MIC (S. aureus (ATCC 6538); ATCC6538, 18 h)	MIC (P. aeruginosa (DSM 939); DSM939, 18 h)	MIC (B. subtilis (CICC 21164))	bacterial count of peritoneal fluid (E. coli; mice i.p. E. coli, i.p. compound, days 1 and 3)	clinical presentation of infected mice (E. coli; seven-day observation)	cell morphology of B. subtilis (elongation) (B. subtilis)
CC[C@]1(O)C[C@H]2CN(CCc3c([nH]c4ccccc34)[C@@](C(=O)OC)(c3cc4c(cc3OC)N(C=O)[C@H]3[C@@](O)(C(=O)OC)[C@H](OC(C)=O)[C@]5(CC)C=CCN6CC[C@]43[C@@H]65)C2)C1 [Compound 6, Vincristine sulfate]		64 µM	negligible effects	8 µM	32 µM	16 µM													
CN(C)c1ccc2c(c1)Sc1cc(N(C)C)ccc1N2 [Compound 33, Leucomethylene blue mesylate]	74.46 ± 0.25 µM	32 µM	varying degrees of inhibition on FtsZ polymerization	4 µM	2 µM	64 µM	minimal impact on the dynamics of FtsZ polymerization	80%	65%	3 logs									
C[C@]12CC[C@@H]3c4ccc(OC(=O)N(CCCl)CCCl)cc4CC[C@H]3[C@@H]1CC[C@@H]2O [Compound 56, Estramustine]	38.66 ± 0.28 µM		negligible effects				minimal impact on the dynamics of FtsZ polymerization				128 µM (≈ 56.4 µg/mL)	98%	99%	128 µM (≈ 56.4 µg/mL)	32 µM (≈ 14.1 µg/mL)	64 µM (≈ 28.2 µg/mL)			
CC(C)CNc1ccnc(NCc2csc(-c3ccccc3)n2)n1 [Compound 60, KHS 101]	5.62 ± 0.12 µM	16 µM (≈ 5.43 µg/mL)	varying degrees of inhibition on FtsZ polymerization	8 µM (≈ 2.72 µg/mL)	8 µM (≈ 2.72 µg/mL)	64 µM (≈ 21.7 µg/mL)	apparent inhibitory tendencies towards FtsZ polymerization	89%	90%										
CN(C)c1ccc2nc3ccc(=[N+](C)C)cc-3sc2c1 [Compound 71, Methylene Blue]		64 µM	negligible effects	2 µM	64 µM	32 µM				3 logs									
COc1ccc2cc3[n+](cc2c1OC)CCc1cc2c(cc1-3)OCO2 [Compound 82, Berberine]		64 µM	varying degrees of inhibition on FtsZ polymerization	4 µM	8 µM	64 µM	robust inhibitory activity against FtsZ polymerization										substantially mitigated	exhibited vitality, maintained a healthy appetite	varying degrees of elongation
